Results on 20 molecules are retold here after patent publication US7531554B2, “4-oxoquinoline compound and use thereof as HIV integrase inhibitor” (Japan Tobacco Inc., priority 2004, dated 2009).

Where a name gives a salt, the structure may show the parent alone.

In the test the target is T1, HIV integrase (Human immunodeficiency virus type 1 group M subtype B, UniProt P12497, F1332H).
T1 construct: HIV integrase full length gene (J. Virol., 67, 425-437 (1993)) in which phenylalanine at codon 185 was substituted by histidine; made in house; host or cells: Escherichia coli BL21(DE3)
The test can be described thus: Determination of enzyme (HIV integrase) inhibitory activity. The class given is biochemical. To be noted: recombinant integrase protein (F185H), donor DNA/target DNA, absorbance at 450 nm. The protocol: HIV integrase full length gene (J. Virol., 67, 425-437 (1993)) in which phenylalanine at codon 185 was substituted by histidine, was inserted between the restriction enzyme NdeI and XhoI sites of plasmid pET21a(+) (Novagen), whereby an integrase expression vector pET21a-IN-F185H was constructed.
Escherichia coli recombinant BL21(DE3) transformed with plasmid pET21a-IN-F185H obtained in (i) was shake cultured at 30° C. in a liquid medium containing ampicillin. When the culture reached the logarithmic growth phase, isopropyl-β-D-thiogalactopyranoside was added to promote expression of integrase gene. The culture was continued for 3 hr to promote accumulation of the integrase protein. The recombinant E. coli was collected in pellets by centrifugal separation and preserved at −80° C.
The E. coli was suspended in Lysis buffer (20 mM HEPES (pH 7.5), 5 mM DTT, 10 mM CHAPS, 10% glycerol) containing 1M sodium chloride and subjected to repeat pressurization and depressurization for rupture, and centrifugal separation at 4° C., 40,000×g, 60 min to recover a water-soluble fraction (supernatant). This was diluted 10-fold with Lysis buffer free of sodium chloride, mixed with SP-Sepharose (Pharmacia Corporation) and stirred at 4° C. for 60 min to allow adsorption of integrase protein to the resin. The resin was washed with Lysis buffer containing 100 mM sodium chloride and the integrase protein was eluted with Lysis buffer containing 1M sodium chloride.
The eluted integrase protein solution was subjected to a Superdex 75 (Pharmacia Corporation) column for gel filtration. The protein was eluted with Lysis buffer containing 1M sodium chloride.
The obtained fractions of the integrase protein were collected and preserved at −80° C.
The following DNA synthesized by Greiner was dissolved in TE buffer (10 mM Tris-hydrochloric acid (pH 8.0), 1 mM EDTA) and mixed with donor DNA, target DNA, and each complementary strand (+ and − strands) to 1 μM. The mixture was heated at 95° C. for 5 min, 80° C. for 10 min, 70° C. for 10 min, 60° C. for 10 min, 50° C. for 10 min and 40° C. for 10 min and kept at 25° C. to give a double stranded DNA, which was used for the test. Donor DNA ([…] attached to the 5′ terminal) Donor + strand: 5′-Biotin-ACCCTTTTAGTCAGTGTGGAAAATCTCTAGCA-3′ (SEQ ID NO:1) Donor − strand: 5′-ACTGCTAGAGATTTTCCACACTGACTAAAAG-3′ (SEQ ID NO:2) Target DNA (+, − strands both having digoxigenin added at 3′ terminal) Target + strand: 5′-TGACCAAGGGCTAATTCACT-Dig-3′ (SEQ ID NO:3) Target − strand: 5′-AGTGAATTAGCCCTTGGTCA-Dig-3′ (SEQ ID NO:4)
The donor DNA was diluted with TE buffer to 10 nM, of which 50 μl was added to each well of streptavidin-coated microtiter plate (Roche) and allowed to adsorb at 37° C. for 60 min. The plate was washed with phosphate buffer (Dulbecco's PBS, Sanko Junyaku Co., Ltd.) containing 0.1% Tween 20 and phosphate buffer. Then, an enzyme reaction mixture (70 μl), a test substance (10 μl) diluted with the reaction mixture and 100 μg/ml integrase protein (10 μl) were added to each well and reacted at 37° C. for 60 min.
Then, 50 nM target DNA (10 μl) was added, reacted at 37° C. for 10 min and washed with phosphate buffer containing 0.1% Tween 20 to stop the reaction.
Then, 100 mU/ml peroxidase labeled anti-digoxigenin antibody solution (Roche, 100 μl) was added, and the mixture was reacted at 37° C. for 60 min, followed by washing with phosphate buffer containing 0.1% Tween 20.
A peroxidase color solution (Bio Rad, 100 μl) was added and allowed to react at room temperature for 4 min. The color reaction was stopped by adding 1N sulfuric acid (100 μl). The absorbance at 450 nm was measured.
The HIV integrase inhibitory activity (IC50) of the compound of the present invention was calculated from the inhibition rate according to the following formula. […]
With `CC(C)[C@@H](CO)n1cc(C(=O)O)c(=O)c2cc(Cc3cccc(Cl)c3F)c(Oc3ccccc3)cc21` [Example 4-44, 6-(3-chloro-2-fluorobenzyl)-1-((1S)-1-(hydroxymethyl)-2-methylpropyl)-4-oxo-7-phenoxy-1,4-dihydroquinoline-3-carboxylic acid], the IC50 was 4.9 nM.

Consider `CC(=O)N[C@@H]1CCN(c2cc3c(cc2Cc2cccc(Cl)c2F)c(=O)c(C(=O)O)cn3[C@H](CO)C(C)C)C1` [Example 4-27, 7-((3R)-3-(acetylamino)pyrrolidin-1-yl)-6-(3-chloro-2-fluorobenzyl)-1-((1S)-1-(hydroxymethyl)-2-methylpropyl)-4-oxo-1,4-dihydroquinoline-3-carboxylic acid], for which the 50% inhibitory concentration (IC50) was 16 nM.

`CC(C)[C@@H](CO)n1cc(C(=O)O)c(=O)c2cc(Cc3cccc(Cl)c3F)c(OCS(=O)(=O)N(C)C)cc21` [Example 4-28, 6-(3-chloro-2-fluorobenzyl)-7-((dimethylamino)sulfonylmethoxy)-1-((1S)-1-(hydroxymethyl)-2-methylpropyl)-4-oxo-1,4-dihydroquinoline-3-carboxylic acid]: the IC50 amounted to 4.5 nM.

`CC(C)[C@@H](CO)n1cc(C(=O)O)c(=O)c2cc(Cc3cccc(Cl)c3F)c(N3CCN[C@H](C)C3)cc21` [Example 4-29, 6-(3-chloro-2-fluorobenzyl)-1-((1S)-1-(hydroxymethyl)-2-methylpropyl)-7-((3R)-3-methylpiperazin-1-yl)-4-oxo-1,4-dihydroquinoline-3-carboxylic acid]: the IC50 was 5.1 nM.

As to `COc1cc2c(cc1Cc1cc(O)cc(Cl)c1F)c(=O)c(C(=O)O)cn2[C@H](CO)C(C)C` [Example 1-6, 6-(3-chloro-2-fluoro-5-hydroxybenzyl)-1-((1S)-1-(hydroxymethyl)-2-methylpropyl)-7-methoxy-4-oxo-1,4-dihydroquinoline-3-carboxylic acid], the IC50 was determined as 4.6 nM.

Regarding `CC(C)[C@@H](CO)n1cc(C(=O)O)c(=O)c2cc(Cc3cccc(Cl)c3F)c(N3CCN(C)CC3)cc21` [Example 4-10, 6-(3-chloro-2-fluorobenzyl)-1-((1S)-1-(hydroxymethyl)-2-methylpropyl)-7-(4-methylpiperazin-1-yl)-4-oxo-1,4-dihydroquinoline-3-carboxylic acid], the IC50 was determined as 6.2 nM.

Consider `CSC[C@@H](CO)n1cc(C(=O)O)c(=O)c2cc(Cc3cccc(Cl)c3F)ccc21` [Example 2-7, 6-(3-chloro-2-fluorobenzyl)-1-((1R)-1-(hydroxymethyl)-2-(methylthio)ethyl)-4-oxo-1,4-dihydroquinoline-3-carboxylic acid], for which the concentration for half-maximal inhibition (IC50) worked out at 8.1 nM.

Consider `CC(C)[C@@H](CO)n1cc(C(=O)O)c(=O)c2cc(Cc3cccc(Cl)c3F)c(OCC(=O)O)cc21` [Example 4-50, 7-(carboxymethoxy)-6-(3-chloro-2-fluorobenzyl)-1-((1S)-1-(hydroxymethyl)-2-methylpropyl)-4-oxo-1,4-dihydroquinoline-3-carboxylic acid], for which the IC50 came out at 5.3 nM.

For the molecule `CC(C)[C@@H](CO)n1cc(C(=O)O)c(=O)c2cc(Cc3cccc(Cl)c3F)c(N3CCC(O)CC3)cc21` [Example 4-21, 6-(3-chloro-2-fluorobenzyl)-1-((1S)-1-(hydroxymethyl)-2-methylpropyl)-7-(4-hydroxypiperidin-1-yl)-4-oxo-1,4-dihydroquinoline-3-carboxylic acid], the IC50 was found to be 6.6 nM.

Turning to `COc1cc2c(cc1C(O)c1cccc(Cl)c1F)c(=O)c(C(=O)O)cn2[C@H](CO)C(C)C` (single isomer, unassigned) [Example 7-7], the IC50 was 17 nM.

On to `CC(C)[C@@H](CO)n1cc(C(=O)O)c(=O)c2cc(Cc3cccc(Cl)c3F)c(N3CCNCC3)cc21` [Example 4-12, 6-(3-chloro-2-fluorobenzyl)-1-((1S)-1-(hydroxymethyl)-2-methylpropyl)-4-oxo-7-(piperazin-1-yl)-1,4-dihydroquinoline-3-carboxylic acid], for which the IC50 was 7.3 nM.

Turning to `CC(C)[C@@H](CO)n1cc(C(=O)O)c(=O)c2cc(Cc3cccc(Cl)c3F)c(N3CC[C@H](N)C3)cc21` [Example 4-38, 7-((3S)-3-aminopyrrolidin-1-yl)-6-(3-chloro-2-fluorobenzyl)-1-((1S)-1-(hydroxymethyl)-2-methylpropyl)-4-oxo-1,4-dihydroquinoline-3-carboxylic acid], the IC50 is 12 nM.

On to `COc1cc2c(cc1Cc1cccc(Cl)c1F)c(=O)c(C(=O)O)cn2[C@H](CO)C(C)(C)S(C)(=O)=O` [Example 2-6, 6-(3-chloro-2-fluorobenzyl)-1-((1R)-1-(hydroxymethyl)-2-mesyl-2-methylpropyl)-7-methoxy-4-oxo-1,4-dihydroquinoline-3-carboxylic acid], for which the IC50 was determined as 3.8 nM.

Consider `CC(C)[C@@H](CO)n1cc(C(=O)O)c(=O)c2cc(Cc3cccc(Cl)c3F)c(O)cc21` [Example 7-5, 6-(3-chloro-2-fluorobenzyl)-7-hydroxy-1-((1S)-1-(hydroxymethyl)-2-methylpropyl)-4-oxo-1,4-dihydroquinoline-3-carboxylic acid], for which the IC50 is 3.2 nM.

Regarding `CC(C)[C@@H](CO)n1cc(C(=O)O)c(=O)c2cc(Cc3cccc(Cl)c3F)c(OCCCN(C)C)cc21` [Example 4-6, 6-(3-chloro-2-fluorobenzyl)-7-(3-(dimethylamino)propoxy)-1-((1S)-1-(hydroxymethyl)-2-methylpropyl)-4-oxo-1,4-dihydroquinoline-3-carboxylic acid], the half-maximal inhibitory concentration (IC50) came to 6.3 nM.

Turning to `CC(C)[C@@H](CO)n1cc(C(=O)O)c(=O)c2cc(Cc3cccc(Cl)c3F)c(OCc3ccccn3)cc21` [Example 4-59, 6-(3-chloro-2-fluorobenzyl)-1-((1S)-1-(hydroxymethyl)-2-methylpropyl)-4-oxo-7-(pyridin-2-ylmethoxy)-1,4-dihydroquinoline-3-carboxylic acid], the half-maximal inhibitory concentration (IC50) was found to be 3.6 nM.

`COCCCOc1cc(Cc2cccc(Cl)c2F)cc2c(=O)c(C(=O)O)cn([C@H](CO)C(C)C)c12` [Example 3-7, 6-(3-chloro-2-fluorobenzyl)-1-((1S)-1-(hydroxymethyl)-2-methylpropyl)-8-(3-methoxypropoxy)-4-oxo-1,4-dihydroquinoline-3-carboxylic acid]: the IC50 stood at 4.7 nM.

As to `CC(C)[C@@H](CO)n1cc(C(=O)O)c(=O)c2cc(Cc3cccc(Cl)c3F)c(OCCN(C)C)cc21` [Example 4-2, 6-(3-chloro-2-fluorobenzyl)-7-(2-(dimethylamino)ethoxy)-1-((1S)-1-(hydroxymethyl)-2-methylpropyl)-4-oxo-1,4-dihydroquinoline-3-carboxylic acid], the IC50 was found to be 6 nM.

Take `CC(C)[C@@H](CO)n1cc(C(=O)O)c(=O)c2cc(Cc3cccc(Cl)c3F)c(N3CCSCC3)cc21` [Example 4-32, 6-(3-chloro-2-fluorobenzyl)-1-((1S)-1-(hydroxymethyl)-2-methylpropyl)-4-oxo-7-(thiomorpholin-4-yl)-1,4-dihydroquinoline-3-carboxylic acid]: the IC50 is 7.1 nM.

Take `COc1cc2c(cc1Cc1cccc(Cl)c1F)c(=O)c(C(=O)O)cn2C(CO)C1CCNCC1` (centres unmarked) [Example 2-2, 6-(3-chloro-2-fluorobenzyl)-1-(2-hydroxy-1-(piperidin-4-yl)ethyl)-7-methoxy-4-oxo-1,4-dihydroquinoline-3-carboxylic acid hydrochloride]: the IC50 came to 12 nM.
